Read-outs that look alike come from different tables or passages of the source.
Experiments:
Aβ secretion = experiment: Secreted total Aβ ELISA in conditioned media of H4βAPP695 wt cells; assay type: cell-based, human; settings: for inhibition at 10 µM / inhibition at 30 µM: Homo sapiens, 24 h, H4βAPP695 wt cells; for inhibition at 30 µM: read-out: Total Aβ (% decrease) 30 μM Mean; for Aβ secretion inhibiting activity (structure activity summary): in words
Experimental: H4βAPP695 wt cells, a human […] cell line stably transfected with a wtβAPP695 expression vector construct under the control of a CMV promoter (kindly provided by Dr. Chris Eckman from Mayo Clinic, Florida) were cultured as previously described. Twenty-four hours before drug treatment, the media was replaced with serum-free media. Cells were then incubated with drugs (dissolved in DMSO) or vehicle for 24 h for collection of conditioned media and cell lysates. For the PKC inhibitors experiment, three inhibitors were treated 30 min prior to drug challenge. Primary cortical neurons were prepared from embryonic day 18 APP and presenilin 1 (APPswe, PSEN1dE9) transgenic mice on the C57BL/6 genetic background (Jackson Laboratories, strain no. 5864) as previously described. THLE-3 human hepatoma cells (from ATCC) were plated in 24-well plates that were precoated with 10 μg/mL bovine serum albumin, 10 μg/mL fibronectin, and 30 μg/mL bovine type I collagen. The cells were grown in BEGM media (Clonetics) until confluent and treated with drugs at 20 μM for 24 h. This conditioned media was harvested, diluted 1:1 in serum-free medium, and incubated with H4βAPP695 wt cells for 24 h prior to analysis of secreted Aβ, which was compared to the effect of 10 μM drug treatments without prior incubation with the THLE-3 cells. Caco-2 cells (ATCC) were plated in 12-well plates with Transwell inserts (Costar) at 70000 cells per well and grown for 21 days. The media volume of the apical and basal chambers was 0.5 and 1.5 mL, respectively. Transepithelial resistance was measured in each well and found to be >160 Ω/cm^2. Drugs at 40 μM and 20 μg/mL of lucifer yellow were added in serum-free medium to the apical chamber. Four hours later, the basal chamber media was harvested and used to measure lucifer yellow fluorescence to confirm monolayer integrity as well as for treatment of H4βAPP695 wt cells for 24 h prior to analysis of secreted Aβ, which was compared to the effect of direct addition of 10 μM of the corresponding drug.

H4βAPP695 wt cells = experiment: Cytotoxicity by total cell protein content (BCA) of H4βAPP695 wt cells; settings: cytotoxicity
[1] = relative to vehicle treated control cells, read-out: % β Decrease
[2] = read-out: Total Aβ (% decrease) 10 μM Mean

SMILES | inhibition at 10 µM (Aβ secretion; [1]) [%] | inhibition at 10 µM (Aβ secretion; [2]) [%] | inhibition at 30 µM (Aβ secretion) [%] | Aβ secretion inhibiting activity (structure activity summary) (Aβ secretion) | Cell protein (% decrease) 10 μM Mean (H4βAPP695 wt cells) [%] | Cell protein (% decrease) 30 μM Mean (H4βAPP695 wt cells) [%]
O=C(NCCSCc1ccc(Cl)cc1)c1ccc(Cl)cc1Cl [Compound 2] | 5.3 |  |  |  |  | 
O=C(NCCSCc1cccc(Cl)c1)c1ccccc1Cl [Compound 3] | 4.7 |  |  |  |  | 
O=C(NCCCCNC(=O)c1ccccc1Br)c1ccccc1Br [Compound 4] | 7.9 |  |  |  |  | 
O=C(NCCSCc1ccc(Cl)c(Cl)c1)c1ccccc1Cl [Compound 5] | 0.7 |  |  |  |  | 
O=C(NCCSCc1ccc(Cl)c(Cl)c1)c1ccc(Cl)cc1Cl [Compound 6] | 4.3 |  |  |  |  | 
COCCCNC(=O)c1c(Cl)cccc1Cl [Compound 8] | 6.9 |  |  |  |  | 
O=C(NCCNC(=O)c1c(Cl)cccc1Cl)c1c(Cl)cccc1Cl [Compound 13] | 7.6 |  |  |  |  | 
O=C(NCCSCc1ccccc1Cl)c1ccccc1Cl [Compound 16] | 4 |  |  |  |  | 
O=C(NCCSCc1ccc(Cl)cc1)c1ccccc1Cl [Compound 17] | -12 |  |  |  |  | 
O=C(NCCSCc1ccc(F)cc1)c1c(F)cccc1Cl [Compound 22] | 27.3 |  |  |  |  | 
Oc1c(Cl)cc(Cl)cc1/C=N/CCSCc1ccccc1Cl [Compound 23] | 5.3 |  |  |  |  | 
O=C(NCCS(=O)(=O)Cc1ccc(F)cc1)c1c(F)cccc1Cl [Compound 24] | 39.2 |  |  |  |  | 
O=C(NCCCCNC(=O)c1ccccc1F)c1ccccc1F [Compound 25] | 0.2 |  |  |  |  | 
COc1cccc(CS(=O)(=O)CCNC(=O)c2c(Cl)cccc2Cl)c1 [Compound 30, 2,6-dichloro-N-[2-(3-methoxy-phenylmethanesulfonyl)-ethyl]-benzamide] |  | 5.3 | 4.9 | No tested substitutions in the linker region were well tolerated | 1.2 | 8.9
COc1cccc(C[S+]([O-])CCNC(=O)c2c(Cl)cccc2Cl)c1 (centres unmarked) [Compound 32, 2,6-dichloro-N-[2-(3-methoxy-phenylmethanesulfinyl)-ethyl]-benzamide] |  | -13.6 | -15.8 | No tested substitutions in the linker region were well tolerated | 1.6 | 9.2
N=C(NO)c1cccc(CSCCNC(=O)c2c(Cl)cccc2Cl)c1 [Compound 39, 2,6-Dichloro-N-(2-[3-(N-hydroxycarbamimidoyl)-benzylsulfanyl]-ethyl)-benzamide] |  | -1.5 | 1.6 | did not yield good activity | 9.2 | 5.9
Clc1cccc(CSCCNCc2c(Cl)cccc2Cl)c1 [Compound 57, [2-(3-Chloro-benzylsulfanyl)-ethyl]-(2,6-dichloro-benzyl)-amine] |  | 45.2 | 45.6 | No tested substitutions in the linker region were well tolerated | −3.6 | 6.6
O=C(NCCSCc1cccc(O)c1O)c1c(Cl)cccc1Cl [Compound 58, 2,6-Dichloro-N-[2-(2,3-dihydroxy-benzylsulfanyl)-ethyl]-benzamide] |  | -4.3 | 33.1 | lost activity | −4.8 | 14
NC(=O)c1c(Cl)cccc1CSCC(=O)c1c(Cl)cccc1Cl [Compound 61, 2-Chloro-6-((2-(2,6-dichlorophenyl)-2-oxoethylthio)methyl)benzamide] |  | 44.7 | 49.7 | could be tolerated | 2.5 | −5.6
O=C(NCCSCc1ccccc1)c1ccccc1 [Compound 64, N-(2-Benzylsulfanyl-ethyl)-benzamide] |  | -5.7 | 5.5 |  | 0.7 | −4.1

Reference: patent US20130158112A1, “COMPOSITIONS AND METHODS FOR INHIBITING BETA AMYLOID SECRETION” (priority 2011, published 2013)
